Assay results from patent US20080221074A1, “Drug Screen and Treatment Method” (priority 2006, published 2008).

Tests used:
[1] = degree of sulfation and glucuronidation (other protocols); assay type: in vitro ADME; details: compared to diols
Text: Despite that, the compound androst-5-ene-3β,7β,16α,17β-tetrol was active as described above when administered orally to mice in a diabetes treatment model. […] This activity may have arisen at least partly from the low metabolism of tetrol compounds in vivo.

[2] = tested on: human MG-63 osteosarcoma cell line; experiment: reversal of dexamethasone effects in MG-63 osteoblasts; assay type: cell-based; details: 30 nM dexamethasone; compound concentration stated with each value (17α-ethynyl triol: 1 nM)
EAE = experiment: PLP-induced EAE, treatment from clinical onset; assay type: in vivo, female SJL mice; details: 0.1 mg q.d. po from clinical onset
Protocol: The protocol for conducting the EAE animal model was described in (D. Auci et. al., Ann. NY. Acad. Sci. USA, 1051:730-42, 2005). Female SJL mice (6-8 week old, average body weight of 25 g) obtained from Charles-River were kept under standard laboratory conditions (non specific pathogen germ free) with ad libitum food and water and were allowed to adapt one week to their environment before commencing the study. […] EAA was induced with 200 μL of a 1:1 emulsion of 75 μg proteolipid protein (PLP) and 6 mg/mL Mycobacterium tuberculosis H37RA in complete Freund's adjuvant (CFA). The 200 μL injection was divided among four sites that drained into the auxiliary and inguinal lymphnodes. Pertussis toxin was used as a co-adjuvant and was administered i.p. at 200 ng/mouse on day zero and day two post immunization. Groups were treated with 0.1 mg of compound in 100 μL vehicle, or with vehicle alone, q.d. po (oral gavage) starting at clinical onset of disease and continuing through to day 30 post immunization. […] Clinical grading was carried out by an observer unaware of the treatment: 0=no illness, 1=flaccid tail, 2=moderate paraparesis, 3=severe paraparesis, 4=moribund state, 5=death.

estrogen receptor-β = estrogen receptor-β (Homo sapiens, UniProt Q92731); experiment: interaction with sex hormone receptor; assay type: binding
Chain of estrogen receptor-β (Q92731 whole entry, species assumed): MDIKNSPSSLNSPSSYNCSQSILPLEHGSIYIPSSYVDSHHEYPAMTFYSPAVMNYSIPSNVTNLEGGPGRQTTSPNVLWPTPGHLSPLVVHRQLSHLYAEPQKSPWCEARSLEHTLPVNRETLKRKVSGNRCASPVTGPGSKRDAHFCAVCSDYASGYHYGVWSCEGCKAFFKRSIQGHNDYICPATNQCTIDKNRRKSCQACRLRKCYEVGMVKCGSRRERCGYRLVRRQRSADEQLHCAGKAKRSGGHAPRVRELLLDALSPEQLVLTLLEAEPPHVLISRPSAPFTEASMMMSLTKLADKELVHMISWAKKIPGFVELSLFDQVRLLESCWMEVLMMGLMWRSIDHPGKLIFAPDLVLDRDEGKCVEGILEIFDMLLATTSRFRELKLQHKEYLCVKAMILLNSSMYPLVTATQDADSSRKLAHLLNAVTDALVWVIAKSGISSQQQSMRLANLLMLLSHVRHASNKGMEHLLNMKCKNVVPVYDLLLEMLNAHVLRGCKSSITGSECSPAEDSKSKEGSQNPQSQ

[3] = tested on: insulin sensitivity in db/db diabetic mice; experiment: hyperinsulinemic-euglycemic clamp; assay type: in vivo
Protocol: Glucose lowering in 8 week old db/db diabetic mice. The hyperinsulinemic-euglycemic clamp protocol was conducted to measure insulin sensitivity in vivo. In this procedure, insulin was administered to raise the insulin concentration while glucose was infused to maintain euglycemia or a fixed, normal blood glucose level (about 180 mg/dL). […] The objective of this protocol was to investigate characterize the capacity of 17α-ethynylandrost-5-ene-3β,7β,17β-triol and androst-5-ene-3β,7β,16α,17β-tetrol to ameliorate systemic insulin resistance and improve whole body glucose disposal in the hyperinsulinemic-euglycemic clamp model. The degree of skeletal muscle and hepatic insulin sensitivity and tissue specific glucose uptake were also assessed. The animals were dosed daily by oral gavage for 14 days. On Day 10 of treatment catheters were implanted in the carotid artery and jugular vein. On the day of the clamp (day 14) the compound was administered at 7:30 am.
Body weight and glucose concentration were assessed on day 0, 7 and day 14 of treatment. On day 14 a euglycemic hyperinsulinemic clamp was performed. Food was removed at 7:30 am at 10:30 a primed continuous infusion of [3-^3H]-glucose (0.05 μCi/min). A baseline blood sample was taken at 12:50 (−10 min) and at 1:00 (0 min) a euglycemic hyperinsulinemic clamp was initiated by administering 10 mU /kg/min of insulin. Glucose was infused at a variable rate to clamp the glucose concentration at ˜180 mg/dl. A bolus of [^14C]-2deoxyglucose was given at the end of the study to assess tissue specific glucose uptake. Plasma ^14C 2-deoxyglucose was assessed at 122, 125, 130, 135, 145 min. […]
Analysis was conducted as follows. Plasma samples were deproteinized with Ba(OH)2 (0.3 N) and ZnSO4 (0.3 N), dried and radioactivity was assessed on scintillation counter (Packard TRICARB 2900 TR, Meriden, Conn.). […] One supernatant was directly counted to determine radioactivity from both [14C] […] A second aliquot was treated with Ba(OH)2 and ZnSO4 to remove ^14C DGP and any tracer incorporated into glycogen and then counted to determine radioactivity from free [^14C]DG(2). [^14C]DGP was calculated as the difference between the two aliquots. […] Rg, an index of tissue specific glucose uptake was calculated as previously described (E.W. Kraegen et al., Am. J. Physiol., 248:E353-E362, 1985). Whole body glucose turnover was calculated as the ratio of the ^3H glucose infusion rate (dpm/kg/min) and arterial plasma glucose specific activity (dpm/mg). Endogenous glucose production was calculated as the difference between the whole body glucose turnover and the exogenous glucose infusion rate (R. N. Bergman et al., Endocr. Rev., 6:45-86, 1985).

[4] = tested on: LPS-induced acute lung inflammation; experiment: LPS-induced lung injury; assay type: in vivo, C57/BL6 mice; details: 40 mg/Kg orally; 48 h after LPS
estrogen receptor-α = estrogen receptor-α (Homo sapiens, UniProt P03372); experiment: interaction with sex hormone receptor; assay type: binding
Chain of estrogen receptor-α (P03372 whole entry): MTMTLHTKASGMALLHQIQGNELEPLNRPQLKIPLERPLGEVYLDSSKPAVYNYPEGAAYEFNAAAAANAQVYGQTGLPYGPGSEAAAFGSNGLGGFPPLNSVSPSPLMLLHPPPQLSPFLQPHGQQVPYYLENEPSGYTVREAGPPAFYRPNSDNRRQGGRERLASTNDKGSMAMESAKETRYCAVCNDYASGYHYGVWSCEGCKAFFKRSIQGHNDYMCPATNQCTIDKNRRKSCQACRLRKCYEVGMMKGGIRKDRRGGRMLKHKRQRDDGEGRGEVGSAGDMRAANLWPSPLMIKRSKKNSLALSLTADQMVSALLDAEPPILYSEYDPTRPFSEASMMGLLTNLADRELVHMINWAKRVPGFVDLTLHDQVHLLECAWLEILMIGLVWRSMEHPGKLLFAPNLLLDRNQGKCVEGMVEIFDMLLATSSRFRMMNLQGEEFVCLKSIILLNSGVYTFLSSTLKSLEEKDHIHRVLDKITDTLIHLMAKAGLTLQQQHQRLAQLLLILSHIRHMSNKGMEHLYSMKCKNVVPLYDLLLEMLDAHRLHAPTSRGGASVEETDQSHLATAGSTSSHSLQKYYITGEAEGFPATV

[5] = tested on: osteoblasts and osteocytes; experiment: osteoblast and osteocyte apoptosis in vertebral bone of ovariectomized mice (TUNEL); assay type: in vivo, Swiss Webster mice
Text: The degree of apoptosis of osteoblasts and osteocytes in murine vertebral bone as a function of estrogen deficiency was examined. Swiss Webster mice (four months old) were ovariectomized. Twenty-eight days later, the animals were sacrificed, vertebrae were isolated, fixed and embedded, and then undecalcified in methacrylate.

[6] = tested on: bone marrow-derived mast cells (BMMC); experiment: mast cell stimulus-coupled degranulation (β-glucuronidase release); assay type: cell-based, Balb/C mice; details: no stimulus
Protocol: In another protocol, a population of mast cells was cultivated from murine bone marrow as follows. Briefly, bone marrows from Balb/C mice were flushed from the femur using PBS and a 27 g needle. The cells were cultured in a mixture of ⅔ RPMI-1640 with 19% FBS and cells that secreted IL-3. The bone marrow cells were allowed to differentiate for 18-25 days in the IL-3-containing mixture before being used for experiments. Bone marrow cells cultured in this manner have a phenotype similar to mucosal mast cells and are referred to as bone marrow-derived mast cells (BMMC).
The homogeneity of the in vitro propagated mast cells was checked by conventional flow cytometry techniques and staining for cell-type specific markers. Between days 14 and 21 of propagation, mature mast cells were harvested and prepared for the test cultures. The objective was to assess of the effect of compounds such as dehydroepiandrosterone on mast cell stimulus-coupled degranulation. Prepared mast cells were dispensed into test culture wells at a density of 1×10^7 cells/mL. In control cultures, mast cells were induced to degranulate after cross linking of IgE receptors with IgE antigen-antibody complexes. […] There was no detectable degranulation of mast cells as measured by release of β-glucuronidase from cytosolic storage granules of the cells in the absence of the stimulus. […]

C[C@]12CC[C@H]3[C@@H]([C@@H](O)C=C4C[C@H](O)CC[C@@]43C)[C@@H]1C[C@@H](O)[C@@H]2O [androst-5-ene-3α,7β,16α,17β-tetrol]
degree of sulfation and degree of glucuronidation [1]: low
reversal of the decrease in osteoprotegerin synthesis [2]: normal osteoprotegerin levels at 10 nM
course of EAE compared to vehicle-treated mice (EAE): very similar to that observed in the vehicle-treated mice

C[C@]12CC[C@H]3[C@@H]([C@@H](O)C=C4C[C@@H](O)CC[C@@]43C)[C@@H]1C[C@@H](O)[C@@H]2O [androst-5-ene-3β,7β,16α,17β-tetrol]
interaction with estrogen receptor-β (estrogen receptor-β): do not interact
glucose uptake in the gastrocnemius muscle ([3]; ^14C-2-deoxyglucose, p<0.05): more effective
glucose infusion rate compared to vehicle control ([3]; oral gavage 14 days, insulin 10 mU/kg/min): increased the glucose infusion rate
degree of sulfation and degree of glucuronidation [1]: low
IL-6 level in BAL vs vehicle [4]: reduced levels
MPO level vs vehicle [4]: reduced levels
TNFα level in BAL vs vehicle [4]: reduced levels
reversal of the decrease in osteoprotegerin synthesis [2]: normal osteoprotegerin levels at 0.1 μM
interaction with estrogen receptor-α (estrogen receptor-α): do not interact
course of EAE compared to vehicle-treated mice (EAE): significantly improved course of EAE

C[C@]12CC[C@H]3[C@@H](CCC4=C[C@H](O)CC[C@@H]43)[C@@H]1CC[C@@H]2O [4-estrene-3α,17β-diol]
osteoblast and osteocyte apoptosis [5]: reduce apoptosis

C[C@]12CC[C@H](O)CC1=CC[C@@H]1[C@@H]2CC[C@]2(C)C(=O)CC[C@@H]12 [dehydroepiandrosterone]
degranulation with compound alone [6]: no measurable degranulation
